Laboratory results: patent US20260355171A1, “INHIBITORS AND USES THEREFOR” (priority 2022, published 2026)
Where “and” joins values, the source holds several entries; their conditions need not be identical. Identical values can stand only once. Like-named read-outs stand apart in the source and are kept apart here.

Columns and labels:
[1] = Adverse reactions in pharmacokinetic study; type: in vivo, mouse; conditions: 24-hour sampling period, IV 3 mg/kg and IP 10 mg/kg
Description: The pharmacokinetics of compound 22 was studied in non-fasted male C57BL/6 mice weighing 21.1-26.5 g. Mice had access to food and water ad libitum throughout the pre- and post-dose sampling period.
Compound 22 was dosed to mice by bolus injection into the lateral tail vein (2 mL/kg) for IV administration and by injection into the IP cavity (5 mL/kg) for IP administration. After dosing, blood samples were collected up to 24 h (n=3 mice per time point) with a maximum of three samples from each mouse via submandibular bleed (approximately 120 μL). No urine samples were collected as mice were housed in bedded cages. Blood was collected into polypropylene Eppendorf tubes containing heparin as anticoagulant. Once collected, blood samples were centrifuged immediately, supernatant plasma was removed, and stored at −80 °C until analysis by liquid chromatography-mass spectrometry (LC-MS). A summary of the bioanalytical method is included in Table 5.

[2] = Tissue (brain/lung) exposure, IP administration; type: in vivo, mouse; conditions: for Unbound Brain Parenchyma Concentration, individual / Unbound Plasma Concentration, individual / B:P ratio (brain:plasma), individual / L:P ratio, individual / Unbound B:P ratio (Kp,uu), individual / concentration / Kp at 0.5 h / concentration at 0.5 h / Kp uu at 0.5 h / Kp at 4 h / concentration at 4 h / Kp uu at 4 h / concentration at 24 h: 10 mg/kg; for Kp at 0.5 h / concentration at 0.5 h / Kp uu at 0.5 h / Kp at 4 h / concentration at 4 h / Kp uu at 4 h / concentration at 24 h: mouse, ip
Description: For the tissue collection, at 0.5, 4 and 24 h following IP administration, mice were anaesthetised (using gaseous isoflurane). Immediately after the submandibular bleed, mice were killed via cervical dislocation and the whole brain and lung were removed from each carcase. All these tissues were blotted to remove excess blood, placed into pre-weighed polypropylene vials and weighed. Tissue samples were snap frozen in dry ice and subsequently stored frozen at −80 °C until analysis. A summary of the bioanalytical method is included in Table 5.
Tissue: Pre-weighed tissue samples (brain and lung) were homogenised using a gentleMACS™ Octo Dissociator (Miltenyi Biotec, Macquarie Park, Australia) in buffer containing an EDTA/potassium fluoride solution (0.1 M/4 mg/mL) as a stabilisation cocktail to minimise the potential for ex vivo degradation (3 mL cocktail/g tissue). The tissue homogenate was briefly centrifuged (RCF=79×g) for 10 seconds to separate the foam layer before transferring an aliquot of the tissue homogenate (200 μL) to a fresh Eppendorf tube for sample extraction. Calibration standards were prepared by spiking blank brain and lung homogenate (200 μL) with the solution standards (10 μL) and the internal standard (10 μL). Study samples (for all tissue types) were similarly prepared, except that acetonitrile (10 μL) was added instead of solution standards to maintain the same volume. Protein precipitation was carried out by the addition of a 3-fold volume of acetonitrile, followed by vortex mixing and centrifugation (RCF=9391×g) for 3 min to recover the supernatant for analysis.
The concentration of compound 22 in brain or lung parenchyma was calculated on the basis of the measured concentration in brain or lung homogenate, after correcting for the contribution of compound contained within the vascular space of brain or lung samples as follows:
Ctissue=Ctissue homogentate−Ctissue vasculature where Ctissue vasculature=Cplasma×Vp • Ctissue=concentration of compound in brain or lung parenchyma (μM) • Ctissue homogenate=concentration of compound in brain or lung homogenate (μM) • Ctissue vasculature=concentration of compound in brain or lung vasculature (μM) • Cplasma=concentration of compound in plasma (μM)
Vp=brain plasma volume (0.017 mL/g for male C57BL/6 mice; Nicolazzo et al. (2010), Clinical and Experimental Pharmacology and Physiology, 37: 647-649) or lung plasma volume (0.16 mL/g of tissue, Boswell et al. (2014), Molecular Pharmaceutics, 11: 1591-1598)
Concentrations in brain or lung parenchyma were converted from units of ng/g to μM assuming a specific gravity of 1.
For each mouse, the tissue (brain or lung)-to-plasma concentration ratio (based on total concentrations in each matrix) was calculated as: […]
For brain uptake, the unbound brain-to-plasma partition coefficient (based on unbound concentrations in each matrix) was calculated as: […]

[3] = 0.5 h, IP 10 mg/kg, individual mice
[4] = 0.5 h, IP 10 mg/kg, individual mice, 30 min
[5] = 4.0 h, IP 10 mg/kg, individual mice
[6] = 4.0 h, IP 10 mg/kg, individual mice, 240 min

NC(=O)C1CCN(c2ncccc2CNCc2cccc3[nH]ccc23)CC1 [Compound 22]
Adverse reactions or compound-related side effects [1]: no adverse reactions or compound-related side effects observed | Unbound Brain Parenchyma Concentration, individual [2, 3]: 0.160 µM and 0.138 µM and 0.169 µM | Unbound Plasma Concentration, individual [2, 3]: 1050 nM and 704 nM and 841 nM | B:P ratio (brain:plasma), individual [2, 4]: 0.23 | L:P ratio, individual [2, 4]: 2.8 and 2.6 | Unbound B:P ratio (Kp,uu), individual [2, 4]: 0.20 | concentration ([2]; 0.5 h, IP 10 mg/kg, individual mice, 30 min, read-out: Total Brain Parenchyma Concentration, individual): 291 nM | concentration ([2]; 0.5 h, IP 10 mg/kg, individual mice, 30 min, read-out: Total Lung Parenchyma Concentration, individual): 3560 nM and 4000 nM | concentration ([2]; 0.5 h, IP 10 mg/kg, individual mice, 30 min, read-out: Total Plasma Concentration, individual): 1290 nM and 1540 nM | Unbound Brain Parenchyma Concentration, mean ([2]; 0.5 h, IP 10 mg/kg, mean): 0.155 µM | Unbound Plasma Concentration, mean ([2]; 0.5 h, IP 10 mg/kg, mean): 866 nM | Unbound Brain Parenchyma Concentration, individual [2, 5]: 0.0292 µM and 0.0285 µM | Unbound Plasma Concentration, individual [2, 5]: 4.3 nM and 3.3 nM | B:P ratio (brain:plasma), individual [2, 6]: 9.91 | L:P ratio, individual [2, 6]: 68.6 | Unbound B:P ratio (Kp,uu), individual [2, 6]: 8.59 | concentration ([2]; 4.0 h, IP 10 mg/kg, individual mice, 240 min, read-out: Total Brain Parenchyma Concentration, individual): 60.1 nM | concentration ([2]; 4.0 h, IP 10 mg/kg, individual mice, 240 min, read-out: Total Lung Parenchyma Concentration, individual): 416 nM | concentration ([2]; 4.0 h, IP 10 mg/kg, individual mice, 240 min, read-out: Total Plasma Concentration, individual): 6.1 nM | Unbound Brain Parenchyma Concentration, mean ([2]; 4.0 h, IP 10 mg/kg, mean): 0.0288 µM | Unbound Plasma Concentration, mean ([2]; 4.0 h, IP 10 mg/kg, mean): 3.8 nM | Unbound Brain Parenchyma Concentration, individual ([2]; 24 h, IP 10 mg/kg, individual mice): 0.0060 µM and 0.0005 µM | concentration ([2]; 24 h, IP 10 mg/kg, individual mice, 1440 min, read-out: Total Lung Parenchyma Concentration, individual): 2.5 nM and 1.6 nM and 0.7 nM | Apparent tissue-to-plasma ratio (B:P or L:P) at 4 h versus 0.5 h ([2]; IP 10 mg/kg): substantially higher than that at 0.5 h | Duration of measurable concentrations in brain ([2]; IP 10 mg/kg): ≤ 4 h | Duration of measurable concentrations in lung ([2]; IP 10 mg/kg): up to 24 hours | Unbound Brain Parenchyma Concentration, mean ([2]; IP 10 mg/kg, mean): 0.0033 µM | Kp at 0.5 h ([2]; brain, 0.5 h, individual mice, read-out: B:P ratio (brain:plasma), individual): 0.18 | concentration at 0.5 h ([2]; brain, 0.5 h, individual mice, read-out: Total Brain Parenchyma Concentration, individual): 337 nM | Kp uu at 0.5 h ([2]; brain, 0.5 h, individual mice, read-out: Unbound B:P ratio (Kp,uu), individual): 0.15 | Kp at 0.5 h ([2]; brain, 0.5 h, mean, read-out: B:P ratio (brain:plasma), mean): 0.21 | concentration at 0.5 h ([2]; brain, 0.5 h, mean, read-out: Total Brain Parenchyma Concentration, mean): 328 nM | Kp uu at 0.5 h ([2]; brain, 0.5 h, mean, read-out: Unbound B:P ratio (Kp,uu), mean): 0.18 | Kp at 4 h ([2]; brain, 4.0 h, individual mice, read-out: B:P ratio (brain:plasma), individual): 7.9 | concentration at 4 h ([2]; brain, 4.0 h, individual mice, read-out: Total Brain Parenchyma Concentration, individual): 61.6 nM | Kp uu at 4 h ([2]; brain, 4.0 h, individual mice, read-out: Unbound B:P ratio (Kp,uu), individual): 6.84 | concentration at 4 h ([2]; brain, 4.0 h, mean, mouse 16 excluded, read-out: Total Brain Parenchyma Concentration, mean): 60.9 nM | Kp at 4 h ([2]; brain, 4.0 h, mean, read-out: B:P ratio (brain:plasma), mean): 8.9 | Kp uu at 4 h ([2]; brain, 4.0 h, mean, read-out: Unbound B:P ratio (Kp,uu), mean): 7.72 | concentration at 24 h ([2]; brain, 24 h, mean, read-out: Total Brain Parenchyma Concentration, mean): 6.9 nM | Kp at 0.5 h ([2]; lung, 0.5 h, individual mice, read-out: L:P ratio, individual): 2 | concentration at 0.5 h ([2]; lung, 0.5 h, individual mice, read-out: Total Lung Parenchyma Concentration, individual): 3830 nM | Kp at 0.5 h ([2]; lung, 0.5 h, mean, read-out: L:P ratio, mean): 2.5 | concentration at 0.5 h ([2]; lung, 0.5 h, mean, read-out: Total Lung Parenchyma Concentration, mean): 3800 nM | Kp at 4 h ([2]; lung, 4.0 h, individual mice, read-out: L:P ratio, individual): 45.7 | concentration at 4 h ([2]; lung, 4.0 h, individual mice, read-out: Total Lung Parenchyma Concentration, individual): 356 nM | concentration at 4 h ([2]; lung, 4.0 h, mean, mouse 16 excluded, read-out: Total Lung Parenchyma Concentration, mean): 386 nM | Kp at 4 h ([2]; lung, 4.0 h, mean, read-out: L:P ratio, mean): 57.1 | concentration at 24 h ([2]; lung, 24 h, mean, read-out: Total Lung Parenchyma Concentration, mean): 2.1 nM | concentration at 0.5 h ([2]; plasma, 0.5 h, individual mice, read-out: Total Plasma Concentration, individual): 1920 nM | concentration at 0.5 h ([2]; plasma, 0.5 h, mean, read-out: Total Plasma Concentration, mean): 1580 nM | concentration at 4 h ([2]; plasma, 4.0 h, individual mice, read-out: Total Plasma Concentration, individual): 7.8 nM | concentration at 4 h ([2]; plasma, 4.0 h, mean, mouse 16 excluded, read-out: Total Plasma Concentration, mean): 6.9 nM
